Results as given in patent US10800791B2, “Triazole ACC inhibitors and uses thereof” (Gilead Apollo, LLC, priority 2015, dated 2020).
In brackets after ≈: the same amount, converted by molar mass. Like-named read-outs stand apart in the source and are kept apart here.

Assays:
human (hACC2) = human (hACC2) (Homo sapiens, UniProt O00763); assay: In vitro ACC inhibition assay (ADP-Glo), hACC2; type: biochemical; settings: 5 nM ACC2, 20 μM ATP, 20 μM acetyl-CoA
Procedure: The detailed procedure is as follows. […] 10 μL ADP glo reagent was added. […] 20 μL kinase detection reagent was added.

C. albicans = assay: Antifungal Activity Assay (broth microtiter MIC), C. albicans; type: cell-based, Candida albicans; settings: for MIC: Candida albicans, ATCC90028, 48 h
Procedure, shortened: (§1)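 Broth microdilution per CLSI M27-A3 in RPMI 1640+MOPS, inoculum 2.5×10^3 CFU/mL final from overnight Sabouraud dextrose agar cultures at 35° C. Compounds diluted from DMSO stock to 128 μg/mL in water. MIC read visually versus growth control at 48 h.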

C. krusei = assay: Antifungal Activity Assay (broth microtiter MIC), C. krusei; type: cell-based, Candida krusei; settings: for MIC: Pichia kudriavzevii, ATCC6258, 48 h
Procedure, shortened: as §1

C. parapsilosis = assay: Antifungal Activity Assay (broth microtiter MIC), C. parapsilosis; type: cell-based, Candida parapsilosis; settings: for MIC: Lodderomyces parapsilosis, ATCC22019, 48 h
Procedure, shortened: as §1

fungal (fACC2) = fungal (fACC2) (UniProt Q00955); settings: read-out: fACC2 (in vitro ACC2 Inhibition Assay, IC50), ADP-Glo, 5 nM ACC2, 20 μM ATP, 20 μM acetyl-CoA
Sequence of fungal (fACC2) (Q00955 whole entry): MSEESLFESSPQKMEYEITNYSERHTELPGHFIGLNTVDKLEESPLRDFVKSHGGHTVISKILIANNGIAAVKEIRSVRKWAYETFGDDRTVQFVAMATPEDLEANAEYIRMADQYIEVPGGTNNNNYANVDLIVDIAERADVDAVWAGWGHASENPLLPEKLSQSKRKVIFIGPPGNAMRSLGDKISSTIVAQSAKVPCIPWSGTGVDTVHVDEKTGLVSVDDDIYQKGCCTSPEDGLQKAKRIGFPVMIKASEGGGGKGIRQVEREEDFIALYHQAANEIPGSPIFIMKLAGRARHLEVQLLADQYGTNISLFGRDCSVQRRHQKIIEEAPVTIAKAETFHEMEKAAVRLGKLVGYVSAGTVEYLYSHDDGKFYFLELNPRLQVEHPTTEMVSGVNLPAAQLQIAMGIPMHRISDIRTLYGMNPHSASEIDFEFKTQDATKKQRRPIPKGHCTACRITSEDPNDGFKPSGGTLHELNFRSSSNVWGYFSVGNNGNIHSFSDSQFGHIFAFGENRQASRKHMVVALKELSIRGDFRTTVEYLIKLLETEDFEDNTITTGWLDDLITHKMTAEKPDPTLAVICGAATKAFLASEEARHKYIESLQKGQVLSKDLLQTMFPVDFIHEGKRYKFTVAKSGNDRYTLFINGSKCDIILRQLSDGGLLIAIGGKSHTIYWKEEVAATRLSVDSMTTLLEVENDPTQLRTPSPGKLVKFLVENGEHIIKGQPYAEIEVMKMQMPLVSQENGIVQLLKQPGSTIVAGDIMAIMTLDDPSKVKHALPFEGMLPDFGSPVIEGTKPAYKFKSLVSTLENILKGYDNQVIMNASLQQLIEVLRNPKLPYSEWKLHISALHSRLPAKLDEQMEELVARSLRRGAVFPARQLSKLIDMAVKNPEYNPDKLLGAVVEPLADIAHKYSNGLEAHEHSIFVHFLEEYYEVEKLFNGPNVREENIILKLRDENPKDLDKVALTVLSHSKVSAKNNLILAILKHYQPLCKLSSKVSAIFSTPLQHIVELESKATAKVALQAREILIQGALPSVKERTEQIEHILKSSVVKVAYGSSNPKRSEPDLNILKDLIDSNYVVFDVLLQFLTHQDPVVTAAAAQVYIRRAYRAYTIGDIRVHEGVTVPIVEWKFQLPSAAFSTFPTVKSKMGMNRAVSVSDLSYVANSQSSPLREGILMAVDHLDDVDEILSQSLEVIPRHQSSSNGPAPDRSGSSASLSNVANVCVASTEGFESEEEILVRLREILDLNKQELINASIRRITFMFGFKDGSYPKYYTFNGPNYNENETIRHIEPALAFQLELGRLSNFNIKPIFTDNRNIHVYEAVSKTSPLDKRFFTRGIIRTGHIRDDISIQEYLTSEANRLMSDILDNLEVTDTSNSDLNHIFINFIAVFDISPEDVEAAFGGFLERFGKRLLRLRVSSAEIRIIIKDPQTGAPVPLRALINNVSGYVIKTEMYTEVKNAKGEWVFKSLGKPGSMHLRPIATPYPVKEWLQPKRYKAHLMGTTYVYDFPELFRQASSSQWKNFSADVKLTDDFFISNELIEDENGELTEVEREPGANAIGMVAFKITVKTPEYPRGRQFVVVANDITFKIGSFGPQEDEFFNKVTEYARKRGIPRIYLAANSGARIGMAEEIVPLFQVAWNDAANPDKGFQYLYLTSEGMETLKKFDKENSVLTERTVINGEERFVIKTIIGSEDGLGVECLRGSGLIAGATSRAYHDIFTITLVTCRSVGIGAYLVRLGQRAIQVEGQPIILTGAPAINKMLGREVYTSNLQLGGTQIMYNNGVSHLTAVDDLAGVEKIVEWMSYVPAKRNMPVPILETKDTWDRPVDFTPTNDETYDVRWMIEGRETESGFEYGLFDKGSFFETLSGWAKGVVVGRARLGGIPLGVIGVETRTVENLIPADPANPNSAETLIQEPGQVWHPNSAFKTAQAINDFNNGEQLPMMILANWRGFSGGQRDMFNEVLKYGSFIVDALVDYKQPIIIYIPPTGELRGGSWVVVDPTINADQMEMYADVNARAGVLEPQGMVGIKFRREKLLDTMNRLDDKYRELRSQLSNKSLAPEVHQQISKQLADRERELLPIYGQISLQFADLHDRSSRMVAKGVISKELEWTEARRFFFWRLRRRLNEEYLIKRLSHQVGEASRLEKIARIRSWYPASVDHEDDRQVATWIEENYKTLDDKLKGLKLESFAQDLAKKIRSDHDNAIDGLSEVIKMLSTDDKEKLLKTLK

[1] = read-out: MIC, C. albicans ATCC 90028, Table 3b (additional results), 3 replicates, MIC recorded at 48 h
[2] = read-out: MIC, C. krusei ATCC 6258, Table 3b (additional results), 3 replicates, MIC recorded at 48 h
[3] = read-out: MIC, C. parapsilosis ATCC 22019, Table 3b (additional results), 3 replicates, MIC recorded at 48 h
[4] = Table 3a, ATCC 90028, 3 replicates, MIC recorded at 48 h, read-out: MIC, C. albicans ATCC 90028
[5] = Table 3b (additional results), ATCC 90028, 3 replicates, MIC recorded at 48 h, read-out: MIC, C. albicans ATCC 90028
[6] = Table 3a, ATCC 6258, 3 replicates, MIC recorded at 48 h, read-out: MIC, C. krusei ATCC 6258
[7] = Table 3b (additional results), ATCC 6258, 3 replicates, MIC recorded at 48 h, read-out: MIC, C. krusei ATCC 6258
[8] = Table 3a, ATCC 22019, 3 replicates, MIC recorded at 48 h, read-out: MIC, C. parapsilosis ATCC 22019
[9] = Table 3b (additional results), ATCC 22019, 3 replicates, MIC recorded at 48 h, read-out: MIC, C. parapsilosis ATCC 22019
[10] = Table 3a, 3 replicates, MIC recorded at 48 h
[11] = Table 3b (additional results), 3 replicates, MIC recorded at 48 h

Sequence of human (hACC2) (O00763 whole entry): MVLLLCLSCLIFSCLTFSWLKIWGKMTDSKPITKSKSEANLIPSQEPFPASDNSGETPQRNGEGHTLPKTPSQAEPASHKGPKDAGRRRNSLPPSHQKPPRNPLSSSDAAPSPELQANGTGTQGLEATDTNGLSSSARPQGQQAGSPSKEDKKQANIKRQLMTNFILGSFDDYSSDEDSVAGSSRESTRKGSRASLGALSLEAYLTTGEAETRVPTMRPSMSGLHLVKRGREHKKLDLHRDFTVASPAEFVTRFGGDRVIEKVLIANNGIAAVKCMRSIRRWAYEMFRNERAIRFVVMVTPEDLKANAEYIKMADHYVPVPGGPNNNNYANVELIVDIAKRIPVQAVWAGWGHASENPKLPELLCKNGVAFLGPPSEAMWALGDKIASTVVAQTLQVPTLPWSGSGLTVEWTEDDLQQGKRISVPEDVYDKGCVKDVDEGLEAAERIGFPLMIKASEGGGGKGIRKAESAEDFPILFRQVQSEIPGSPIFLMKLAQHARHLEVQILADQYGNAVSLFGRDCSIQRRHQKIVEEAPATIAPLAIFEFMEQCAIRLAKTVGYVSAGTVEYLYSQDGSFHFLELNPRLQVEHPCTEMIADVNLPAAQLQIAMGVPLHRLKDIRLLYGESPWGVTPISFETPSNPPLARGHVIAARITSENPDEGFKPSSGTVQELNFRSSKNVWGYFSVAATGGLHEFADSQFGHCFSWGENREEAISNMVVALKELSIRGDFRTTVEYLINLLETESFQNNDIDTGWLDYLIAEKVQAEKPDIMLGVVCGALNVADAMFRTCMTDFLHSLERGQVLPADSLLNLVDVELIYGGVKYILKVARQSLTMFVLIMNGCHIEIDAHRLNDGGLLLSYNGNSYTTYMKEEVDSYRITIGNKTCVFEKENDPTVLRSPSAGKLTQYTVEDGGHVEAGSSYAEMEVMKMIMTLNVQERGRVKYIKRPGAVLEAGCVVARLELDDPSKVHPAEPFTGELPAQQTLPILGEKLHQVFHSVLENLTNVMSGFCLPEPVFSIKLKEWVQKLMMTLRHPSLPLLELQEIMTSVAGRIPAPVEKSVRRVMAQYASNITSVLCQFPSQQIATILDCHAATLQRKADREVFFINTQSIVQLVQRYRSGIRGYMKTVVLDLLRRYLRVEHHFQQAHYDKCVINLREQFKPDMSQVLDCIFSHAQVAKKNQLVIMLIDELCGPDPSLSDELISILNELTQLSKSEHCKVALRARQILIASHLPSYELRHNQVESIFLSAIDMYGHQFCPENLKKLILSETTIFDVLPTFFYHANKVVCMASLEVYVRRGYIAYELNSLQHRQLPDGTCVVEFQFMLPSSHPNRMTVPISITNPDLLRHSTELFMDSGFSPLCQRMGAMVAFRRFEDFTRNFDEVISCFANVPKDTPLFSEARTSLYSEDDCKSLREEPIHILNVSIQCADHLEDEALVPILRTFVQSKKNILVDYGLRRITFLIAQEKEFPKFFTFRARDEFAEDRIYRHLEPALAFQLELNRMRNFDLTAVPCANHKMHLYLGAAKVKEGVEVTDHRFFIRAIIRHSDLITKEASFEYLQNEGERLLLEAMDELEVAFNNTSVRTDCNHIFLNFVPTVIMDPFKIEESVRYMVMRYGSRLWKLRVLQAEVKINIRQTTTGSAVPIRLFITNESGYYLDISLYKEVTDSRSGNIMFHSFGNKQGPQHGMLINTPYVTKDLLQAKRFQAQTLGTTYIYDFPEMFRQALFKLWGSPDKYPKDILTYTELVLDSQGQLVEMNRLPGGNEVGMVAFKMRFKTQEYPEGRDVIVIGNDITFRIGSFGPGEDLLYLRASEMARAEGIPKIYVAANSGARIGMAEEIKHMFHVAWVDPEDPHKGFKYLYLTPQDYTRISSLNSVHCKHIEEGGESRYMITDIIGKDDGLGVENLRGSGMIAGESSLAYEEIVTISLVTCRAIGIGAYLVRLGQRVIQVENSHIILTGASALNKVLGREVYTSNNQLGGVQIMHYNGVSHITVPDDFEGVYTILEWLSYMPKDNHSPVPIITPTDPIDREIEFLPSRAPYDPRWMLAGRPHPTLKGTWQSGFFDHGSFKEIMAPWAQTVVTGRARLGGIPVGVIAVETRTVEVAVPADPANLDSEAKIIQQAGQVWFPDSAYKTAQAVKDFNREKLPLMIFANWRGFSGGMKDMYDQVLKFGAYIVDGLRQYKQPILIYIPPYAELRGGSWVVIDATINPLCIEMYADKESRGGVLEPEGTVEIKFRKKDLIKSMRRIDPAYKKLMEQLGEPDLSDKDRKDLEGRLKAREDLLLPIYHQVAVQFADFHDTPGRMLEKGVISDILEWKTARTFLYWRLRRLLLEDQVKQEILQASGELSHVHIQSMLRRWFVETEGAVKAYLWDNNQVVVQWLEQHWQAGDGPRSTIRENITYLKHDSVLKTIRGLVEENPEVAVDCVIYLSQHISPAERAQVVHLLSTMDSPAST

SMILES: COc1ccc(F)cc1[C@H](Cn1c(=O)n(C(C)(C)C(=O)NC(C)C)c(=O)c2c(C)c(-n3nccn3)sc21)OCCC(C)(C)O [Compound I-168]
- IC50 (human (hACC2); Table 2a): 5 to 10 nM
- IC50 (human (hACC2); Table 2b, additional results): 5 to 10 nM
- MIC (C. albicans; [1]): 0.25 to 1 µg/mL (≈ 0.396 to 1.59 µM)
- MIC (C. krusei; [2]): 0.25 to 1 µg/mL (≈ 0.396 to 1.59 µM)
- MIC (C. parapsilosis; [3]): 0.25 to 1 µg/mL (≈ 0.396 to 1.59 µM)
- IC50 (fungal (fACC2); Table 2a): 1 to 5 nM
- IC50 (fungal (fACC2); Table 2b, additional results): 1 to 5 nM

SMILES: COc1ccc(F)cc1[C@H](Cn1c(=O)n(C(C)(C)C(=O)OC(C)C)c(=O)c2c(C)c(-n3nccn3)sc21)OCCO [Compound I-129]
- IC50 (human (hACC2); Table 2a): 1 to 5 nM
- IC50 (human (hACC2); Table 2b, additional results): 1 to 5 nM
- MIC (C. albicans; [4]): 1.1 to 2 µg/mL (≈ 1.87 to 3.39 µM)
- MIC (C. albicans; [5]): 1.01 to 2 µg/mL (≈ 1.71 to 3.39 µM)
- MIC (C. krusei; [6]): 0.25 to 1 µg/mL (≈ 0.424 to 1.7 µM)
- MIC (C. krusei; [7]): 0.25 to 1 µg/mL (≈ 0.424 to 1.7 µM)
- MIC (C. parapsilosis; [8]): 0.25 to 1 µg/mL (≈ 0.424 to 1.7 µM)
- MIC (C. parapsilosis; [9]): > 4.01 µg/mL
- IC50 (fungal (fACC2); Table 2a): 1 to 5 nM
- IC50 (fungal (fACC2); Table 2b, additional results): 1 to 5 nM

SMILES: CCc1ccc(F)cc1[C@H](Cn1c(=O)n(C(C)(C)C(=O)O)c(=O)c2c(C)c(-n3nccn3)sc21)OCCO [Compound I-125]
- IC50 (human (hACC2); Table 2a): 1 to 5 nM
- IC50 (human (hACC2); Table 2b, additional results): 1 to 5 nM
- MIC (C. albicans; [4]): 2.1 to 4 µg/mL (≈ 3.85 to 7.33 µM)
- MIC (C. albicans; [5]): > 4.01 µg/mL
- MIC (C. krusei; [6]): 2.1 to 4 µg/mL (≈ 3.85 to 7.33 µM)
- MIC (C. krusei; [7]): > 4.01 µg/mL
- MIC (C. parapsilosis; [8]): 2.1 to 4 µg/mL (≈ 3.85 to 7.33 µM)
- MIC (C. parapsilosis; [9]): > 4.01 µg/mL
- IC50 (fungal (fACC2); Table 2a): 1 to 5 nM
- IC50 (fungal (fACC2); Table 2b, additional results): 0.3 to 1 nM

SMILES: COCCO[C@@H](Cn1c(=O)n(C(C)(C)C(=O)NC2CCC2)c(=O)c2c(C)c(-n3nccn3)sc21)c1cc(F)ccc1OC [Compound I-134]
- IC50 (human (hACC2); Table 2a): 5 to 10 nM
- IC50 (human (hACC2); Table 2b, additional results): 5 to 10 nM
- MIC, C. albicans ATCC 90028 (C. albicans; [10]): B (MIC of 1.1-2.0 μg/mL)
- MIC, C. albicans ATCC 90028 (C. albicans; [11]): D (MIC of >4.01 μg/mL)
- MIC, C. krusei ATCC 6258 (C. krusei; [10]): B (MIC of 1.1-2.0 μg/mL)
- MIC, C. krusei ATCC 6258 (C. krusei; [11]): B (MIC of 1.01-2.0 μg/mL)
- MIC, C. parapsilosis ATCC 22019 (C. parapsilosis; [10]): B (MIC of 1.1-2.0 μg/mL)
- MIC, C. parapsilosis ATCC 22019 (C. parapsilosis; [11]): A (MIC of 0.25-1.0 μg/mL)
- IC50 (fungal (fACC2); Table 2a): 1 to 5 nM
- IC50 (fungal (fACC2); Table 2b, additional results): 1 to 5 nM

SMILES: COCCO[C@@H](Cn1c(=O)n(C(C)(C)C(=O)NC2CCCCC2)c(=O)c2c(C)c(-n3nccn3)sc21)c1cc(F)ccc1OC [Compound I-103]
- IC50 (human (hACC2); Table 2a): 10 to 40 nM
- IC50 (human (hACC2); Table 2b, additional results): 10 to 40 nM
- MIC (C. albicans; [4]): 1.1 to 2 µg/mL (≈ 1.71 to 3.11 µM)
- MIC (C. albicans; [5]): 1.01 to 2 µg/mL (≈ 1.57 to 3.11 µM)
- MIC (C. krusei; [6]): 0.25 to 1 µg/mL (≈ 0.389 to 1.56 µM)
- MIC (C. krusei; [7]): 0.25 to 1 µg/mL (≈ 0.389 to 1.56 µM)
- MIC (C. parapsilosis; [8]): 0.25 to 1 µg/mL (≈ 0.389 to 1.56 µM)
- MIC (C. parapsilosis; [9]): 0.25 to 1 µg/mL (≈ 0.389 to 1.56 µM)
- IC50 (fungal (fACC2); Table 2a): 1 to 5 nM
- IC50 (fungal (fACC2); Table 2b, additional results): 1 to 5 nM

SMILES: COc1ccc(F)cc1[C@H](Cn1c(=O)n(C(C)(C)C(N)=O)c(=O)c2c(C)c(-n3nccn3)sc21)OC[C@H](C)C#N [Compound I-153]
- IC50 (human (hACC2); Table 2a): 1 to 5 nM
- IC50 (human (hACC2); Table 2b, additional results): 1 to 5 nM
- MIC (C. albicans; [4]): 2.1 to 4 µg/mL (≈ 3.69 to 7.02 µM)
- MIC (C. albicans; [5]): 1.01 to 2 µg/mL (≈ 1.77 to 3.51 µM)
- MIC (C. krusei; [6]): 2.1 to 4 µg/mL (≈ 3.69 to 7.02 µM)
- MIC (C. krusei; [7]): 2.01 to 4 µg/mL (≈ 3.53 to 7.02 µM)
- MIC (C. parapsilosis; [8]): 2.1 to 4 µg/mL (≈ 3.69 to 7.02 µM)
- MIC (C. parapsilosis; [9]): > 4.01 µg/mL
- IC50 (fungal (fACC2); Table 2a): 0.4 to 1 nM
- IC50 (fungal (fACC2); Table 2b, additional results): 0.3 to 1 nM

SMILES: COc1ccc(F)cc1[C@H](Cn1c(=O)n(C(C)(C)C(=O)N(O)C(C)C)c(=O)c2c(C)c(-n3nccn3)sc21)OCCCO [Compound I-163]
- IC50 (human (hACC2); Table 2a): 5 to 10 nM
- IC50 (human (hACC2); Table 2b, additional results): 5 to 10 nM
- MIC (C. albicans; [4]): 0.25 to 1 µg/mL (≈ 0.404 to 1.62 µM)
- MIC (C. albicans; [5]): 1.01 to 2 µg/mL (≈ 1.63 to 3.23 µM)
- MIC (C. krusei; [6]): 0.25 to 1 µg/mL (≈ 0.404 to 1.62 µM)
- MIC (C. krusei; [7]): 0.25 to 1 µg/mL (≈ 0.404 to 1.62 µM)
- MIC (C. parapsilosis; [8]): 0.25 to 1 µg/mL (≈ 0.404 to 1.62 µM)
- MIC (C. parapsilosis; [9]): 2.01 to 4 µg/mL (≈ 3.25 to 6.47 µM)
- IC50 (fungal (fACC2); Table 2a): 1 to 5 nM
- IC50 (fungal (fACC2); Table 2b, additional results): 1 to 5 nM

SMILES: COc1ccc(F)cc1[C@H](Cn1c(=O)n(C(C)(C)C(=O)NC(C)C)c(=O)c2c(C)c(-n3nccn3)sc21)OCCC(=O)O [Compound I-135, 3-[(1R)-1-(5-fluoro-2-methoxyphenyl)-2-(5-methyl-3-[1-methyl-1-[(propan-2-yl)carbamoyl]ethyl]-2,4-dioxo-6-(2H-1,2,3-triazol-2-yl)-1H,2H,3H,4H-thieno[2,3-d]pyrimidin-1-yl)ethoxy]propanoic acid]
- IC50 (human (hACC2); Table 2a): 10 to 40 nM
- IC50 (human (hACC2); Table 2b, additional results): 10 to 40 nM
- MIC (C. albicans; [4]): 0.25 to 1 µg/mL (≈ 0.405 to 1.62 µM)
- MIC (C. albicans; [5]): 0.25 to 1 µg/mL (≈ 0.405 to 1.62 µM)
- MIC (C. krusei; [6]): 2.1 to 4 µg/mL (≈ 3.41 to 6.49 µM)
- MIC (C. krusei; [7]): 0.25 to 1 µg/mL (≈ 0.405 to 1.62 µM)
- MIC (C. parapsilosis; [8]): 2.1 to 4 µg/mL (≈ 3.41 to 6.49 µM)
- MIC (C. parapsilosis; [9]): 0.25 to 1 µg/mL (≈ 0.405 to 1.62 µM)
- IC50 (fungal (fACC2); Table 2a): 1 to 5 nM
- IC50 (fungal (fACC2); Table 2b, additional results): 0.3 to 1 nM

SMILES: COc1ccc(Cl)cc1[C@H](Cn1c(=O)n(C(C)(C)C(=O)NC2CCC2)c(=O)c2c(C)c(-n3nccn3)sc21)OC1CCOCC1 [Compound I-228]
- IC50 (human (hACC2); Table 2b, additional results): 5 to 10 nM
- MIC (C. albicans; [5]): 0.25 to 1 µg/mL (≈ 0.38 to 1.52 µM)
- MIC (C. krusei; [7]): 0.06 to 0.249 µg/mL (≈ 0.0913 to 0.379 µM)
- MIC (C. parapsilosis; [9]): 0.25 to 1 µg/mL (≈ 0.38 to 1.52 µM)
- IC50 (fungal (fACC2); Table 2b, additional results): 1 to 5 nM

SMILES: COc1ccc(F)cc1[C@H](Cn1c(=O)n(C(C)(C)C(=O)NC(C)C)c(=O)c2c(C)c(-n3nccn3)sc21)OCCC(=O)N(C)O [Compound I-219]
- IC50 (human (hACC2); Table 2b, additional results): 5 to 10 nM
- MIC (C. albicans; [1]): 0.25 to 1 µg/mL (≈ 0.387 to 1.55 µM)
- MIC (C. krusei; [2]): 0.25 to 1 µg/mL (≈ 0.387 to 1.55 µM)
- MIC (C. parapsilosis; [3]): 0.25 to 1 µg/mL (≈ 0.387 to 1.55 µM)
- IC50 (fungal (fACC2); Table 2b, additional results): 1 to 5 nM

SMILES: CCc1ccc(F)cc1[C@@H](O)Cn1c(=O)n(C(C)(C)C(N)=O)c(=O)c2c(C)c(-n3nccn3)sc21 [Compound I-202]
- IC50 (human (hACC2); Table 2b, additional results): 10 to 40 nM
- MIC (C. albicans; [5]): > 4.01 µg/mL
- MIC (C. krusei; [7]): > 4.01 µg/mL
- MIC (C. parapsilosis; [9]): > 4.01 µg/mL
- IC50 (fungal (fACC2); Table 2b, additional results): 1 to 5 nM
